Reference: PMC5306062, “Pharmacology and toxicology of the novel investigational agent Cantrixil (TRX-E-002-1)” (Cancer Chemotherapy and Pharmacology, 2016)
Like-named read-outs stand apart in the source and are kept apart here.

Experiments:
[1] = test system: wild-type human ether-à-go-go-related gene (hERG); assay: hERG trafficking, surface expression of wild-type hERG; assay type: cell-based
[2] = GLP telemetry cardiovascular study, intraperitoneal injection; assay type: in vivo, beagle dogs
Procedure: (§1) However, at concentrations of 0.1-10 μM, the drug increased surface expression of the hERG single mutant (hERG-SM), identifying it as a potential blocker of hERG channel activity. […] Potential cardiovascular responses to intraperitoneal injection of TRX-E-002-1 were investigated in a GLP-compliant telemetry study in beagle dogs. Four male dogs received vehicle (20% SBECD) or TRX-E-002-1 (1, 10 or 30 mg/kg) on four separate occasions in a Latin Square design. Blood pressure, heart rate, ECG parameters and body temperatures were continuously recorded from 30 min before dosing until at least 24 h after each dose.

[3] = test system: human Panc-1 pancreatic tumour cells implanted orthotopically; assay: Orthotopic model of pancreatic cancer; assay type: in vivo, female NOD-SCID mice; conditions: 100 mg/kg i.p. once daily in 20% SBECD, 18 consecutive days; p < 0.001
Procedure: Fig. 3 Efficacy of TRX-E-002-1 in an orthotopic model of pancreatic cancer. Female NOD-SCID mice were inoculated directly into the pancreas with PANC-1 human pancreatic epithelioid adenocarcinoma cells transfected with luciferase gene. Tumours were allowed to establish prior to treatment initiation. Animals were dosed with TRX-E-002-1 100 mg/kg i.p. for 18 consecutive days over which time tumour growth was monitored using bioluminescent imaging. Following euthanasia at the predetermined end-point, tumours were excised and weighed. Final tumour (plus pancreas) weights excised at the terminal time point. *p < 0.001

tumour spheroids = assay: Degradation of tumour spheroids; assay type: cell-based, human
Text: Tumour recurrence post-chemotherapy is caused by the regrowth of the surviving innately drug-resistant cancer stem cells that remain in tumour niches during and post-chemotherapy. The expansion of this chemo-resistant cancer cell population, coupled with upregulation of pro-survival pathways due to drug pressure, is thought to be responsible for the development of chemo-resistant recurrent disease. Further, the inherent heterogeneity of ovarian tumours consists of epithelial cells with varying potential for stemness, and a population of cancer cells with varying mesenchymal status and invasiveness potential. Therefore, to improve survival, a practical approach is the use of novel therapies that can induce cell death in these various subtypes of ovarian cancer cells. TRX-E-002-1 was assessed against ovarian cancer stem cell line OCSC2, characterised by their expression of stem cell markers including CD44 and […] [22]. A major characteristic of these cells is that they are drug resistant, able to form self-renewing spheroids in non-adherent culture, and recreate disseminated drug-resistant ovarian tumours that have a high degree of heterogeneity similar to the clinical profile observed in patients when inoculated into the peritoneal cavity of an immune-compromised mouse.

[4] = test system: ovarian, prostate and lung cancer cells; assay: Broad cytotoxic activity; assay type: cell-based; conditions: Homo sapiens, summary over ovarian
Text: Activity in pancreatic and colorectal cancer cells and glioblastoma cells was more variable (Table 1).

caspases 3/7 and 9 = assay: Caspase activity in OCSC2 cells; assay type: cell-based, human
Procedure: The role of caspases and intracellular signalling pathways in the anticancer activity of TRX-E-002-1 was investigated in OCSC2 ovarian cancer stem cells. […] TRX-E-002-1 also modulated phosphorylation of intracellular signalling molecules, with decreased levels of pERK (phosphorylated extracellular signal-regulated kinase) and increased levels of phosphorylated c-Jun (p–c-Jun). Activated p–c-Jun levels increased progressively over the 24-h incubation period in response to both concentrations of TRX-E-002-1 tested. […] Increased p–c-Jun and decreased pERK levels were observed following incubation of OCSC2 cells after only 2-h’ exposure, indicating these changes are one of the earliest effects of TRX-E-002-1 treatment.

hERG current = target: T1, hERG current (Homo sapiens, UniProt Q12809); assay: Patch-clamp electrophysiological assay in hERG-transfected mammalian cells; assay type: cell-based; conditions: read-out: IC50 for inhibition of hERG current
T1 construct: expressed in transfected cells
T1 sequence (Q12809 whole entry): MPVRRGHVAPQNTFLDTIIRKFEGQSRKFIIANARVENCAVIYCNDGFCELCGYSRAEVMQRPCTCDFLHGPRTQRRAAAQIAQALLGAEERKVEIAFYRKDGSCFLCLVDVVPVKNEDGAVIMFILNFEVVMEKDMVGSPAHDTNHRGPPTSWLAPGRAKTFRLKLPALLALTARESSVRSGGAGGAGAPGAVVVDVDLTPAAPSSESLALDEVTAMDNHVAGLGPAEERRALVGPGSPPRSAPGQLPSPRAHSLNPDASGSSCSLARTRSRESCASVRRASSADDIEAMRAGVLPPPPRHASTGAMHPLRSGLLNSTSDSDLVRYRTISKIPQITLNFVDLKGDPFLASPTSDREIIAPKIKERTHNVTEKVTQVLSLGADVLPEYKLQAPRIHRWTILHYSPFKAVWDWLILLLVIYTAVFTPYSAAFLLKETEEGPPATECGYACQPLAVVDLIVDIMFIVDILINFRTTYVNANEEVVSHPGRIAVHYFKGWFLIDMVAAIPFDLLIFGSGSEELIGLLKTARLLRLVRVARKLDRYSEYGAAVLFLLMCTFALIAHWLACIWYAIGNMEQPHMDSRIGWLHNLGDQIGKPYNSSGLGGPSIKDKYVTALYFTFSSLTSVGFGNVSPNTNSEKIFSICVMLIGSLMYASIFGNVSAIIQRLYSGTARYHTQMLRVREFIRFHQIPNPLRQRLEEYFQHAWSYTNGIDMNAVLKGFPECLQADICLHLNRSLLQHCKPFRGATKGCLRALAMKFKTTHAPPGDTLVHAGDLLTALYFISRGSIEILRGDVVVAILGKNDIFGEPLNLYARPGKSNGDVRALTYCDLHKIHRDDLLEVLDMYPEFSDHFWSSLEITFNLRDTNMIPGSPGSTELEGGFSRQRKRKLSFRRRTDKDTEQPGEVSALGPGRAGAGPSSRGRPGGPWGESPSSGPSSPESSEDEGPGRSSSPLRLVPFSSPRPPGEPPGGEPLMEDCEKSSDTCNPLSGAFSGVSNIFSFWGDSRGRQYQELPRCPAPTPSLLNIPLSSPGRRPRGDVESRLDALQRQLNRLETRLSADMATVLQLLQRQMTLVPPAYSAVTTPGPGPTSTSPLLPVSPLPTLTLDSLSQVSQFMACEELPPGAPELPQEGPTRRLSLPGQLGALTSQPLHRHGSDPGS

[5] = test system: recurrent ovarian cancer model; assay: Recurrent ovarian cancer model after paclitaxel (OCSC2-inoculated mice); assay type: in vivo
Procedure: In vivo, TRX-E-002-1, formulated in 20% SBECD, was active in a disseminated ovarian cancer model and a recurrent ovarian cancer model in which tumour recurrence is investigated following initial treatment of the OCSC2-inoculated mice with paclitaxel. In both models, TRX-E-002-1 inhibited tumour growth following once daily intraperitoneal administration.
In the recurrent ovarian cancer model, once daily intraperitoneal administration of 100 mg/kg TRX-E-002-1 in 20% SBECD for 4 weeks inhibited tumour growth and reduced terminal tumour burden by 77%.

[6] = test system: hERG single mutant (hERG-SM); assay: Surface expression of hERG single mutant; assay type: cell-based, human; conditions: 0.1-10 μM
Procedure: as §1

[7] = Rat pharmacokinetics after single intraperitoneal injection of 100 mg/kg; assay type: in vivo, Sprague–Dawley rats; conditions: for AUC(0-inf) / Tmax / half-life: Sprague-Dawley, rat, ip, plasma
Procedure: The pharmacokinetics of TRX-E-002-1 was evaluated in male female Sprague–Dawley rats following a single intraperitoneal injection of 100 mg/kg TRX-E-002-1 in 20% SBECD vehicle. Absorption was rapid, with C max mean plasma concentrations reached 0.25/1 h after dosing in female/male rats. […] Mean plasma levels decreased to below the limit of quantification by 24 h (not shown). The AUC0−∞ value was 29,537 and 44,702 ng h/mL in female and male rats, respectively (Table 2). High tissue levels were observed 0.5–6 h after dosing, with levels higher than the plasma concentration in pancreas, ovaries, large intestine, skin, kidneys, liver, stomach and adrenal glands (not shown). Treatment of plasma and tissue samples with glucuronidase indicated the presence of low levels of a glucuronide conjugate of TRX-E-002-1 (not shown). Other metabolic pathways have not yet been investigated. […] Parent drug was excreted in the urine and faeces, and high levels of the glucuronide metabolite were found in the faeces.
Tissue concentrations of total drug (parent + glucuronide) were also similar to those in plasma except in liver, where they were 2–3 times higher.

[8] = 100 mg/kg i.p. once daily in 20% SBECD for 4 weeks

## COc1cc([C@@H]2COc3c(ccc(O)c3C)[C@@H]2c2ccc(O)cc2)cc(OC)c1O [TRX-E-002-1, (+) cis-4-(para-hydroxyphenyl)-7,4′-dihydroxy-3′,5′-dimethoxy-8-methylisoflavan]
[1]
  surface expression of wild-type hERG: does not affect
[2]; 1, 10 or 30 mg/kg i.p., ECG telemetry
  effect on QTc interval: no effect
[2]; 10 and/or 30 mg/kg i.p., not considered adverse
  blood pressure and heart rate: slight, transient increases
[3]
  terminal pancreatic tumour burden: significantly reduced
Tumour spheroids
  effect on tumour spheroids: promoted the degradation
[4]
  IC50: ≤ 0.1 µM
Caspases 3/7 and 9
  activity of caspases 3/7 and 9: markedly increased
hERG current
  IC50: 17 µM
[5]; [8]
  reduction of terminal tumour burden: 77%
  tumour growth: inhibited
[5]; paclitaxel 12 mg/kg twice weekly
  efficacy compared with paclitaxel: more effective
[6]
  surface expression of hERG-SM: increased
[7]; 100 mg/kg i.p.
  time by which mean plasma levels were below the limit of quantification: ≤ 24 h
[7]; female rats, 100 mg/kg i.p.
  AUC(0-inf): 29500 ng·h/mL
  Tmax: 0.25 h
[7]; male rats, 100 mg/kg i.p.
  AUC(0-inf): 44700 ng·h/mL
  Tmax: 1 h
[7]; female rats, 100 mg/kg i.p., read-out: T ½ (plasma elimination half-life) (converted)
  half-life: ~1.3 h
[7]; male rats, 100 mg/kg i.p., read-out: plasma elimination half-life (converted)
  half-life: ~1.9 h
[7]; female rats, up to 6 h after dosing
  plasma unconjugated TRX-E-002-1 as share of total levels (parent + glucuronide): approximately 90%
